Experiments:
[1] = in vivo
[2] = French farmers with detectable DOM-1 levels; cited from earlier work
[3] = tested on: HT-29 colon carcinoma cells
[4] = tested on: mammalian ribosomes; assay type: biochemical, rabbit
[5] = tested on: T24 bladder cancer cells
[6] = tested on: primary human colon epithelial cells (HCEC-1CT)
[7] = moderately exposed UK population; cited from earlier work
[8] = tested on: Caco-2 cells
[9] = in vivo; cited from earlier work

| SMILES | detection in urine samples [1] | share of the total urinary DON, average [2] [%] | concentration(s) with proliferative stimulus [3] [µM] | cytotoxic effect [3] | concentration from which a significant decrease of cell viability was detectable ([3]; human) [µM] | concentration at which translation was completely inhibited [4] [µM] | concentration(s) with proliferative stimulus [5] [nM] | cytotoxic effect [5] | lowest concentration at which the proliferative effect was present [5] [nM] | concentration from which a significant decrease of cell viability was detectable ([5]; human) [µM] | cytotoxic effect [6] | concentration from which a significant decrease of cell viability was detectable ([6]; human) [µM] | overall 24 h urinary excretion rate of total DON (sum of DON and its glucuronides), average [7] [%] | concentration(s) with proliferative stimulus [8] [nM] | cytotoxic effect [8] | concentration from which a significant decrease of cell viability was detectable ([8]; human) [µM] | maximum urinary concentration [9] [µg/L] |
| --- | --- | --- | --- | --- | --- | --- | --- | --- | --- | --- | --- | --- | --- | --- | --- | --- | --- |
| C=C1[C@@H]2O[C@@H]3C=C(C)C(=O)[C@@H](O)[C@]3(CO)[C@@]1(C)C[C@H]2O [DOM-1, deepoxy-DON] | no DOM-1 was detected in any sample | < 5 | – | – | – | – | – | – | – | – | – | – | – | – | – | – | – |
| CC1=C[C@H]2O[C@@H]3[C@H](O)C[C@](C)([C@@]2(CO)[C@H](O)C1=O)[C@]31CO1 [DON, deoxynivalenol] | – | – | 0.1 | concentration dependent cytotoxicity | 10 | 20 | 0.1 to 10 | concentration dependent cytotoxicity | 0.1 | 1 | concentration dependent cytotoxicity | 1 | 72 | 10 | concentration dependent cytotoxicity | 10 | 275 |
